This note sets out measurements from patent US4107165A, “Tris[tetrahydroisoquinoline] compounds” (Endo Laboratories, priority 1976, dated 1978).

The test system of data set [1] is rats. Put plainly: toxicity, intraperitoneal administration to rats. In kind it is in vivo. To be noted: at 0.01 mg./kg. and at 10 mg./kg. From the text: An outstanding feature of the compounds of this invention is their relative lack of toxicity. Although they are active at very low dose levels, it is possible to exceed minimum effective levels by wide margins without encountering serious adverse reactions. This permits the compounds to be used within wide limits without concern about undesirable side effects, as are so frequently encountered upon inadvertent overdosage of other substances of great potency.

Data set [2] concerns whole blood clot. In words: whole blood clot lysis method (fibrinolytic activity), blood from rats given compound intraperitoneally. In kind it is in vivo. To be noted: Rattus norvegicus, ip, 4 h, intraperitoneal, blood diluted 1:10, clotted with thrombin, 37° C, four hours, read-out: ED50 (dose which causes lysis of 50% of the clot). As to the method: Certain representative compounds within the scope of the present invention have been tested for fibrinolytic activity by the whole blood clot lysis method, as modified from the procedure of Billimoria et al.^1 In this method, blood from rats given a fibrinolytic compound intraperitoneally is taken and diluted 1:10. A standard amount is clotted with thrombin, incubated at 37° C for four hours, and the amount of clot that has lysed is determined. […] These ED50 values for the various compounds tested are set forth in the following table, each of the compounds being identified by name and by the number of the ensuing example in which its synthesis is described. […] ^1 Billimoria, […]., James, […]., Lancet II, 471 (1959)

Data set [3] relates to ADP-induced platelet aggregation. In words: inhibition of ADP-induced platelet aggregation in platelet rich plasma. It counts as cell-based. Conditions: 5 min; human platelet rich plasma, 37° C, five minutes incubation prior to ADP; read-out: ED50 (amount which reduces platelet aggregation by 50%). On the procedure:
Another selection of representative compounds within the scope of the present invention, including some listed in the previous table, have been tested for their ability to inhibit platelet aggregation. Citrated whole blood from human volunteers, who had not taken any medicine for the previous week, was centrifuged to obtain platelet rich plasma. On addition of ADP (adenosine diphosphate) to this platelet rich plasma, incubated at 37° C with constant stirring, in an aggregometer, optical density changes can be observed which are caused by platelet aggregation. Thus, the extent of ADP-induced platelet aggregation is determined for each sample of blood used. Compounds to be tested were incubated for five minutes prior to the addition of ADP. The ED50 of a compound is that amount, in γ/ml, which reduces platelet aggregation by 50% under the above conditions.

Consider `COc1cc2c(cc1OC)C(CCCCC(CCC1NCCc3cc(OC)c(OC)cc31)CCC1NCCc3cc(OC)c(OC)cc31)NCC2.Cl.Cl.Cl` (stereo not drawn) [Example 1.1, 1,1'-{3-[2-(1,2,3,4-tetrahydro-6,7-dimethoxy-1-isoquinolinyl)ethyl]heptamethylene}bis[1,2,3,4-tetrahydro-6,7-dimethoxyisoquinoline] trihydrochloride], for which, in data set [1], the toxicity result is “without producing toxicity”. Besides, the ED50 (commonly the dose that gives a 50% effect, or the effect in half of the subjects) in data set [2] stood at 0.02 mg/kg. In data set [3], the IC50 was 6 µg/mL.
